{
  "source": "patent US10976310B2",
  "about": "“Ligand identification by co-fractionation” (MAX-PLANCK-GESELLSCHAFT ZUR FÖRDERUNG DER WISSENSCHAFTEN …, priority 2016, dated 2021)",
  "key": {"Rbp47b": {"molecular_target": "T1, Rbp47b (Arabidopsis thaliana, UniProt Q0WW84)", "T1 sequence (Q0WW84 1-435)": "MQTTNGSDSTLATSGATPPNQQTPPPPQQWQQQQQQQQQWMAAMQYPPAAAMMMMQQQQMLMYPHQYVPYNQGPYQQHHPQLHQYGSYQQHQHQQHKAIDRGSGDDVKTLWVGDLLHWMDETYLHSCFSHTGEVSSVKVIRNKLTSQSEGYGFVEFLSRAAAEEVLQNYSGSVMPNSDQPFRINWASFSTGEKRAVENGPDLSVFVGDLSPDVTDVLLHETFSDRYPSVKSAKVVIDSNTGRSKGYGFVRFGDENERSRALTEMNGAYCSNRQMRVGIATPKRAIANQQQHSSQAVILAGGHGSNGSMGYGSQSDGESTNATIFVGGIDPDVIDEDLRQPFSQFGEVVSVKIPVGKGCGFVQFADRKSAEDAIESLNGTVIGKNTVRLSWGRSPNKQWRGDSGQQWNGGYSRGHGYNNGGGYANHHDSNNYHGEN", "experiment": "MST measurement of ligand binding to recombinant Rbp47b", "excerpt": "We therefore attempted to determine the in vitro binding affinity biophysically using micro-scale thermophoresis (MST) (Jerabek-Willemsen et al. (2011) Molecular interaction studies using microscale thermophoresis. Assay Drug Dev Technol 9: 342-353). MST exploits the effect of size, charge, and hydration shell on the movement of molecules in a temperature gradient. Complex formation resulting in alteration of at least one of the three parameters leads to differential movement, from which the binding affinity can be determined. For the purpose of the MST experiment, Rbp47b was expressed in and purified from E. coli. […] The measured Kd value also corresponds to the ˜20 μM concentration of 2′,3′-cAMP measured in the native Arabidopsis lysate (FIG. 11B).\nTIA1 protein was purchased from Origene (Herford, Germany). Rbp47b was cloned as a C-terminal GFP fusion (to increase protein solubility) into the E. coli expression vector pDEST14 containing His6-tag at the N-terminal of the Gateway (Karlsruhe, Germany) cassette. […]\nNext day, cells were disrupted with an Avestin (Mannheim, Germany) EmulsiFlex C3 homogenizer and the protein was purified using imidazole-gradient purification in Ni-NTA agarose (Qiagen 34080, Hilden, Germany). […] Protein purity was assessed by SDS-PAGE and protein identification was done using western blot using anti-His6 antibodies. […]"}, "TIA1": {"molecular_target": "T2, TIA1 (Homo sapiens, UniProt P31483)", "T2 construct": "purchased Origene (Herford, Germany)", "T2 sequence (P31483 1-386)": "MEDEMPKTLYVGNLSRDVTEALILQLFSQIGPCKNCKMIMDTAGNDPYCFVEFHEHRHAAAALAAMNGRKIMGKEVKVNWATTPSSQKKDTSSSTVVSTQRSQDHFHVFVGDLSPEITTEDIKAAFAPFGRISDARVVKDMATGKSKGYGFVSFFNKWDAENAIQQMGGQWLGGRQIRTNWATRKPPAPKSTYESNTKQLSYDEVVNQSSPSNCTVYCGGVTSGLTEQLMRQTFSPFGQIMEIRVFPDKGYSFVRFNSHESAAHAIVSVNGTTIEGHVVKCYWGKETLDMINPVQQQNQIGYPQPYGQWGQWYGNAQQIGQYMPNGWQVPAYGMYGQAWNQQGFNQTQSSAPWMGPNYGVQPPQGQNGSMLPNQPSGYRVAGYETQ", "experiment": "MST measurement of ligand binding to recombinant TIA1", "procedure": "Expecting such a basic role of 2′,3′-cAMP to be conserved, we performed similar analysis with TIA1, the human functional homolog of Rbp47b. TIA1 was labeled and its interaction with 2′,3′-cAMP was determined using MST.\nTIA1 protein was purchased from Origene (Herford, Germany). Rbp47b was cloned as a C-terminal GFP fusion (to increase protein solubility) into the E. coli expression vector pDEST14 containing His6-tag at the N-terminal of the Gateway (Karlsruhe, Germany) cassette. Rosetta cells expressing His6-Rbp47b-GFP were grown at 28° C. overnight and next day were moved to Terrific Broth medium supplied with 1% sucrose and relevant antibiotics. Cultures at OD 0.4 were induced by addition of 0.1 mM IPTG and transferred to 16° C. for overnight incubation.\nMST measurements were performed using a Monolith NT.115 instrument (NanoTemper, München, Germany). Capillaries were loaded into the instrument as sets of 13-16 point ligand titrations. Proteins (Rb47b and TIA1) were labeled in phosphate buffer (PBS) using Monolith™ protein labeling kit RED-NHS (amine reactive; MO-L001) according to the manufacturers instruction. Excitation was optimized by varying the LED power to yield emission intensities above 200 AU, corresponding to 10-50 nM labeled protein. Monolith power was set to 60%. Ligands [2′,3′-cAMP (Sigma A9376)] and [3′,5′-cAMP (Sigma A6885)] were dissolved in PBS. […]"}, "Rbp47b-TAP protein": {"molecular_target": "T3, Rbp47b-TAP protein (Arabidopsis thaliana, UniProt Q0WW84)", "T3 construct": "expressed in transfected cells; host or cells: Arabidopsis cell suspension culture, Agrobacterium-transformed", "T3 sequence (Q0WW84 1-435)": "T1 sequence (Q0WW84 1-435)", "experiment": "Cellular thermal shift assay (CETSA) in native Arabidopsis lysate", "format": "binding", "settings": "analogous experiment, native protein lysate", "procedure": "To this end we set out to identify the binding protein partners of 2′,3′-cAMP by applying affinity purification (AP) using agarose beads, with 2′,3′-cAMP linked via the NH2 group of the purine ring. After incubation of the beads with total soluble-protein extracts from A. thaliana cell suspension cultures (cf. Materials and Methods) sequential washings with ADP, GDP, 5′-AMP, and finally 2′,3′-cAMP were performed, and the proteins eluting in the different washings were analyzed by LC-MS/MS proteomics. Proteins eluting from the agarose beads exclusively with 2′,3′-cAMP but absent in any of the other eluents (ADP, GDP, or 5′-AMP; FIG. 10A) were defined as 2′,3′-cAMP-binding. Applying this stringent criterion only one protein remained: the polyadenylate-binding protein Rbp47b. We reasoned that the putative formation of Rbp47b-2′,3′-cAMP complexes in vivo should be reflected by largely overlapping elution profiles of the two components in a size-exclusion experiment (SEC), as was indeed the case (FIG. 10B). To obtain further and independent evidence for the formation of a complex between Rbp47b and 2′,3′-cAMP, we performed a cellular thermal shift assay (CETSA) (Franken et al. (2015) Thermal proteome profiling for unbiased identification of direct and indirect drug targets using multiplexed quantitative mass spectrometry. Nat Protoc 10: 1567-1593). CESTA is a method used in the drug research to verify ligand-receptor binding in the native cellular lysate, based on the observation that presence of the ligand changes thermal stability of the protein receptor. Herein, we adapted the protocol to be suitable for the plant material and an endogenous […] metabolite. We used Arabidopsis cells expressing a tagged version of the Rbp47b, so that Rbp47b level could be easily detected with the anti-tag antibody. […] Taken together, three independent experimental approaches (AP, SEC, and CETSA) provide evidence for the binding of 2′,3′-cAMP to Rbp47b in the native Arabidopsis lysate. […]"}, "PYR1 receptor": {"molecular_target": "T4, PYR1 receptor (Arabidopsis thaliana, UniProt O49686)", "T4 sequence (O49686 1-191)": "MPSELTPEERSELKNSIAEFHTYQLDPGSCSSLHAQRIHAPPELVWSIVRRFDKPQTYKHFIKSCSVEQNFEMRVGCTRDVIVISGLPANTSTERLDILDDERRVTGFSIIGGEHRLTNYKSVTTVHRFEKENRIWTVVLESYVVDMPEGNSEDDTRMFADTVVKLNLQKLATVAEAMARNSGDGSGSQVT", "settings": "Dupeux et al. (2011); read-out: Kd of binding to PYR1; cited from earlier work"}, "[1]": {"molecular_target": "T5, gibberellin receptor GID1 (Oryza sativa subsp. japonica, UniProt Q6L545)", "T5 sequence (Q6L545 1-354)": "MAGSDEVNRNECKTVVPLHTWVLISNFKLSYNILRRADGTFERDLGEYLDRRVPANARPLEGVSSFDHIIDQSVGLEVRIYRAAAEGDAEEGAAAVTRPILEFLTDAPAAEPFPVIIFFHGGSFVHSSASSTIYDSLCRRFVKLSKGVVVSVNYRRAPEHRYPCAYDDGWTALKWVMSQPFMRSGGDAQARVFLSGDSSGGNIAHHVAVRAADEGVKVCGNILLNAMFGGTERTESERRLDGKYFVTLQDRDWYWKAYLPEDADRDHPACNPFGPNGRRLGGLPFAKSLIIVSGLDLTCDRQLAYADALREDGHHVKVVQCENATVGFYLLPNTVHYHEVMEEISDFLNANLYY", "settings": "Ueguchi-Tanaka et al. (2005); read-out: Kd of binding to GID1; cited from earlier work"}, "[2]": {"molecular_target": "T6, 3-methyl-2 oxobutanoate hydroxymethyl-transferase 1 (KPHMT1) (Arabidopsis thaliana, UniProt O82357)", "T6 sequence (O82357 49-347)": "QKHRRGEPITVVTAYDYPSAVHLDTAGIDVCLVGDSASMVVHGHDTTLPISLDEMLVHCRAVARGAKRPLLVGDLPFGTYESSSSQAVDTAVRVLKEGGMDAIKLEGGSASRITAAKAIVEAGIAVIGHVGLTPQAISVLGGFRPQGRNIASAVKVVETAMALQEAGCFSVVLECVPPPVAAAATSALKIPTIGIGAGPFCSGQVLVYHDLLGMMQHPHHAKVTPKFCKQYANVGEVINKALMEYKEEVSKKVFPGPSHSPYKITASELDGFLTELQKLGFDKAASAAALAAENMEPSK", "experiment": "Microscale thermophoresis (MST) assay, Panthotenate-KPHMT1 interaction", "format": "binding", "settings": "mean±SD, n=3", "procedure": "B) Panthotenate-KPHMT1 interaction was tested by Microscale thermophoresis (MST) assay. […] Data are mean±SD, n=3."}, "[3]": {"molecular_target": "T7, Methylthioribose-1-phosphate isomerase (MTR-1-P) (Arabidopsis thaliana, UniProt Q9ZUG4)", "T7 sequence (Q9ZUG4 1-374)": "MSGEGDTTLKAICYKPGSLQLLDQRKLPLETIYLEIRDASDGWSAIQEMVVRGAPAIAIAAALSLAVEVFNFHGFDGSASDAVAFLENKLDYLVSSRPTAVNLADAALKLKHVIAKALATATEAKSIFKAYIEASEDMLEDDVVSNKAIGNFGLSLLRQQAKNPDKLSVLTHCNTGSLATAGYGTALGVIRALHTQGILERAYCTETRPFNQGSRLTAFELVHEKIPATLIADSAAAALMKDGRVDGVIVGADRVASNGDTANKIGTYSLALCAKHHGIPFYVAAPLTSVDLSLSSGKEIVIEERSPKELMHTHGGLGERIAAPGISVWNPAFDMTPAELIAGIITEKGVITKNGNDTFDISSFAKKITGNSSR", "experiment": "Microscale thermophoresis (MST) assay, MTA-MTR-1-P interaction", "format": "binding", "settings": "mean±SD, n=3"}},
  "data": [
    {"smiles": "Nc1ncnc2c1ncn2[C@@H]1O[C@@H]2COP(=O)(O)O[C@H]2[C@H]1O", "note": "[3′,5′-cAMP, reference compound]", "values": [
      {"measurement": "binding to Rbp47b (in words)", "setting": "Rbp47b", "value": "did not observe any binding"},
      {"measurement": "binding to TIA1 (in words)", "setting": "TIA1", "value": "not"},
      {"measurement": "effect on thermal stability of Rbp47b (in words)", "setting": "Rbp47b-TAP protein", "value": "No such effect was observed"}
    ]},
    {"smiles": "CC1=CC(=O)CC(C)(C)[C@@]1(O)/C=C/C(C)=C\\C(=O)O", "note": "[abscisic acid]", "values": [
      {"measurement": "Kd", "setting": "PYR1 receptor", "value": 97, "unit": "µM"}
    ]},
    {"smiles": "CC1C[C@]23C[C@H]1CCC2[C@]12CC[C@H](O)[C@](C)(C(=O)O1)[C@H]2[C@@H]3C(=O)O", "note": "(stereo partly shown) [16,17-dihydro-GA4]", "values": [
      {"measurement": "Kd", "setting": "[1]", "value": 1400, "unit": "nM"}
    ]},
    {"smiles": "CC(C)(CO)[C@@H](O)C(=O)NCCC(=O)O", "note": "[Panthotenate, Pantothenic acid]", "values": [
      {"measurement": "Kd", "setting": "[2]", "value": 367, "unit": "µM"}
    ]},
    {"smiles": "CSC[C@H]1O[C@@H](n2cnc3c(N)ncnc32)[C@H](O)[C@@H]1O", "note": "[MTA, Methylthioadenosine]", "values": [
      {"measurement": "Kd", "setting": "[3]", "value": 2700, "unit": "nM"}
    ]}
  ]
}
